Legend:
[1] = Standard brushing study, Toothpaste F samples (starting L 57.3-66.3, twelve teeth per cell); design: species or system bovine; settings: ΔW data of Table 14, Toothpaste F
Experimental: Bovine enamel teeth mounted individually in resin blocks are purchased and brushed with an abrasive paste until initial “L” values were 56-68. Trays are prepared for the brushing machine and each tray consists of six teeth mounted using 3D printed trays. Baseline optical measurements of the bovine teeth are taken using a spectrophotometer and the trays are loaded onto the brushing machine.
Toothbrushes are placed on the brushing machine by removing the head of a manual toothbrush from its handle. Slurry composed of 1:1 ratio by weight of test toothpaste to artificial saliva is prepared and added to each tray. The teeth are brushed for two minutes with 250 grams of pressure at 120 strokes per minute. After brushing is stopped, the slurry is removed and residual toothpaste is rinsed away with deionized water. The brushing treatment is repeated a total of 14 times and measurements are taken every 2 cycles. The teeth are then gently blotted with a paper towel to remove excess liquid and measurements are taken with the spectrophotometer. […] The “L”, “a”, and “b” values are determined and are used to calculate the change in whiteness “ΔW” for each tooth after the treatment. […]

[2] = Color of toothpaste samples measured with a spectrophotometer (L*, a*, b*); assay type: physicochemical; settings: basic toothpaste formulas with sodium ascorbyl phosphate, with/without sodium stearate
Experimental: To overcome this color issue, surfactants are added to the basic toothpaste formulas in combination with sodium ascorbyl phosphate. Table 15 describes one basic toothpaste formula, to which sodium ascorbyl phosphate and surfactants are added. Three surfactants, sodium stearate, sodium cocoyl glutamate and sodium lauryl isoethionate, are screened, alone and in different combinations with/without sodium ascorbyl phosphate.
Samples of basic toothpaste G with different amounts and combinations of surfactants with/without sodium ascorbyl phosphate are prepared and evaluated for color, as shown in Table 16. A high “b*” value indicates a more yellow color while a lower value indicates a more blue color. A high “L*” value indicates a whiter sample compared to a low “L*” value which indicates a darker sample. As can be observed in Table 16 samples without sodium stearate that incorporate sodium ascorbyl phosphate tends to increase the “b*” value, indicating a more yellow color. Samples that incorporate sodium stearate with sodium ascorbyl phosphate tend to have a relative reduction in “b*” value, indicating less yellow color.

O=C1O[C@H]([C@@H](O)CO)C([O-])=C1OP(=O)([O-])[O-].[Na+].[Na+].[Na+] [sodium ascorbyl phosphate]
whitening efficacy (in words) [1]: significant effect on whitening efficacy
color of the toothpaste (in words) [2]: observable yellow color
